Measured values reported in article PMC7897990, “TriTOX: A novel Trichomonas vaginalis assay platform for high-throughput screening of compound libraries” (International Journal for Parasitology: Drugs and Drug …, 2021).
Read-outs that look alike come from different tables or passages of the source. Non-standard residues stand in square brackets, D forms with d. Residues, ends and D or L forms follow the SMILES beside them. aIle = CC[C@@H](C)[C@H](N)C(=O)O

Legend:
[1] = test system: nontumorigenic neonatal foreskin fibroblast (NFF) cell line
[2] = test system: Trichomonas vaginalis G3 trophozoites; experiment: microbe, parasite or virus in culture; conditions: 48 h
[3] = test system: Trichomonas vaginalis G3 trophozoites
[4] = NFF fibroblasts, single concentration 5 µg/mL
[5] = read-out: T.vaginalis_%inb_Rep1
[6] = read-out: T.vaginalis_%inb_Rep2
[7] = HTS, parasite screen at 1 µg/mL, replicate 1, raw absorbance
[8] = HTS, parasite screen at 1 µg/mL, replicate 2, raw absorbance

Row | SMILES | NFF_Activity [1, 4] | inhibition of growth at 1 µg/mL [2, 5] [%] | inhibition of growth at 1 µg/mL [2, 6] [%] | T.vaginalis_Absorbance_Rep1 [3, 7] | T.vaginalis_Absorbance_Rep2 [3, 8] | NFF_Activity ([1]; NFF fibroblast screen at 5 µg/mL, A = active, I = inactive) | T.vaginalis_Absorbance_Rep1 [3] | T.vaginalis_Absorbance_Rep2 [3]
1 | CC(C)=C[C@H]1C[C@H](C)[C@]2(CC[C@]3(C)C[C@H]4[C@H](C(=O)C[C@@]4(C)O)/C(C=O)=C\C[C@H]32)O1 [Ophiobolin A] | A (active (A) compounds having >25% inhibitory activity) | 14.2 | 13 |  |  |  |  | 
2 | CC(=O)O[C@H]1C[C@@]2(C)[C@@H](C[C@@H](O)[C@H]3[C@@]4(C)CC[C@@H](O)[C@@H](C)[C@@H]4CC[C@@]32C)/C1=C(\CCC=C(C)C)C(=O)O [Fusidate sodium] |  | 4.26 | 1.6 | 0.786 | 0.66 |  |  | 
3 | C[C@@H](O)[C@H]1C(=O)N2C(C(=O)O)=C(S[C@@H]3CN[C@H](CNS(N)(=O)=O)C3)[C@H](C)[C@H]12 [Doripenem] |  | 15.6 | 15.6 | 0.999 |  |  |  | 
4 | CC(C)(O)[C@H]1O[C@H]2CC[C@@]3(C)[C@@](O)(CC[C@H]4Cc5c([nH]c6ccccc56)[C@@]43C)C2=CC1=O [Paxilline] | I (otherwise these were reported as inactive (I)) | 10.1 | 13.3 |  |  |  |  | 
5 | C=C[C@]1(C)C[C@@H](OC(=O)CO)[C@]2(C)[C@H](C)CC[C@]3(CCC(=O)[C@H]32)[C@@H](C)[C@@H]1O [Pleuromutilin] | I (otherwise these were reported as inactive (I)) | 10.1 | 11.7 |  |  |  |  | 
6 | C=C1CC[C@H]2C(C)(C)CCC[C@]2(C)[C@H]1C[C@@]12C[C@H]3C(=O)N4CCC[C@H]4C(=O)N3[C@@H]1Nc1ccccc12 [Drimentine C] |  | 10.4 | 13.8 | 0.907 | 0.85 |  |  | 
7 | CCc1c(Cl)c(O)c(Cl)c(O)c1C(=O)O[C@H]1[C@H](O)[C@H](OC)[C@H](OC/C2=C\C=C\C[C@H](O)/C(C)=C/[C@H](CC)[C@@H](O[C@@H]3OC(C)(C)[C@@H](OC(=O)C(C)C)[C@H](O)[C@@H]3O)/C(C)=C/C(C)=C/C[C@@H]([C@@H](C)O)OC2=O)O[C@@H]1C [Fidaxomicin] |  | 11.5 | 10.1 | 0.922 | 0.759 |  |  | 
8 | Cc1nnc2n1-c1sc(CCC(=O)N3CCOCC3)cc1C(c1ccccc1Cl)=NC2 [WEB 2086] |  | 9.91 | 13.4 |  |  | I (otherwise these were reported as inactive (I)) |  | 
9 | CS(=O)(=O)c1ccc([C@@H](O)[C@@H](CF)NC(=O)C(Cl)Cl)cc1 [Florfenicol] |  | 7.7 | 9.33 | 0.852 | 0.749 |  |  | 
10 | CC(=O)O[C@H]1C[C@@]2(C)[C@@H](CC[C@H]3[C@@]4(C)C=CC(=O)[C@@H](C)[C@@H]4[C@H](OC(C)=O)C(=O)[C@@]32C)/C1=C(\CCC=C(C)C)C(=O)O [Helvolic acid] |  | 5.19 | 10.6 | 0.864 | 0.811 |  |  | 
11 | C[C@H]1c2cccc(O)c2C(=O)C2=C(O)[C@]3(O)C(=O)C(C(N)=O)=C(O)[C@@H](N(C)C)[C@@H]3[C@@H](O)[C@@H]21 [Doxycycline] |  | 9.15 | 1.95 | 0.879 | 0.647 |  |  | 
12 | Cc1cc(O)c2c(c1)C(=O)c1cc(O)cc(O)c1C2=O [Emodin] |  | 17.8 | 12.6 | 1.052 | 0.831 |  |  | 
13 | COC1=CC(=O)C[C@@H](C)[C@]12Oc1c(Cl)c(OC)cc(OC)c1C2=O [Griseofulvin] |  | 12.4 | 12.1 | 0.947 | 0.823 |  |  | 
14 | COc1cccc2c1C(=O)c1c(O)c3c(c(O)c1C2=O)C[C@@](O)(C(=O)CO)C[C@@H]3O[C@H]1C[C@H](N)[C@H](O)[C@H](C)O1 [Doxorubicin] |  | 13.5 | 3.11 | 0.959 | 0.663 |  |  | 
15 | C[C@H]1[C@H](C)CC[C@]2(C(=O)O)CC[C@]3(C)C(=CC[C@@H]4[C@@]5(C)CC[C@H](O)C(C)(C)[C@@H]5CC[C@]43C)[C@H]12 [Ursolic acid] |  | 7.39 | 10.4 |  |  |  |  | 
16 | COC(=O)[C@@H]1c2cc3c(c(O)c2[C@@H](O[C@@H]2O[C@@H](C)[C@H](OC)[C@@](C)(OC)[C@H]2OC)C[C@]1(C)O)C(=O)c1c(O)cc2c(c1C3=O)O[C@@H]1O[C@@]2(C)[C@H](O)[C@@H](N(C)C)[C@@H]1O [Nogalamycin] |  | 12.8 | 13.3 |  |  |  |  | 
17 | CC[C@H]1OC(=O)C[C@@H](O)[C@H](C)[C@@H](O[C@@H]2O[C@H](C)[C@@H](O)[C@H](N(C)C)[C@H]2O)[C@@H](CCN2CCCCC2)C[C@@H](C)C(=O)/C=C/C(C)=C/[C@@H]1CN1CCCCC1 [Tildipirosin] |  | 7.13 | 12.7 |  |  |  |  | 

Row | SMILES | NFF_Activity [1, 4] | inhibition of growth at 1 µg/mL [2, 5] [%] | inhibition of growth at 1 µg/mL [2, 6] [%] | T.vaginalis_Absorbance_Rep1 [3, 7] | T.vaginalis_Absorbance_Rep2 [3, 8] | NFF_Activity ([1]; NFF fibroblast screen at 5 µg/mL, A = active, I = inactive) | T.vaginalis_Absorbance_Rep1 [3] | T.vaginalis_Absorbance_Rep2 [3]
18 | CC[C@H](C)C(=O)O[C@H]1C[C@H](O)C=C2C=C[C@H](C)[C@H](CC[C@@H](O)C[C@@H](O)CC(=O)O)[C@H]21 [Pravastatin sodium] |  | 13 | 13.6 |  |  |  |  | 
19 | C=C[C@]1(C)C[C@@H](OC(=O)CSC(C)(C)CNC(=O)[C@H](N)C(C)C)[C@]2(C)[C@H](C)CC[C@]3(CCC(=O)[C@H]32)[C@@H](C)[C@@H]1O [Valnemulin] |  | 8.39 | 8.96 |  |  |  |  | 
20 | CC(=O)O[C@H]1CC[C@@]2(C)[C@@H](CC[C@@H]3[C@@H]2CC(=O)[C@]2(C)[C@@H]4[C@H](C[C@@H]32)O[C@]2(CC[C@@H](C)CO2)[C@H]4C)C1 [Hecogenin acetate] |  | 10.4 | 14.1 | 0.908 | 0.854 |  |  | 
21 | CC[C@@H](C)[C@@H]1NC(=O)[C@@H](CC(C)C)NC(=O)[C@H](CC(C)C)NC(=O)[C@H](Cc2c[nH]c3ccccc23)NC(=O)CNC(=O)[C@H](CC(N)=O)NC1=O [Desotamide] (cyclo(GWL[dL][aIle]N)) |  | 15 | 4.99 | 0.987 | 0.689 |  |  | 
22 | CN(C)c1cc(NC(=O)CNC(C)(C)C)c(O)c2c1C[C@H]1C[C@H]3[C@H](N(C)C)C(O)=C(C(N)=O)C(=O)[C@@]3(O)C(O)=C1C2=O [Tigecycline] |  | 10 | 5.97 |  |  |  |  | 
23 | CC1=C\[C@@H](O)CC(=O)Cc2nc(co2)C(=O)N2CCC=C2C(=O)O[C@H](C(C)C)[C@H](C)/C=C/C(=O)NC\C=C\1 [Ostreogrycin A] |  | 13.9 | 14.5 |  |  |  |  | 
24 | O=C(O)c1ccc[nH]1 [Pyrrole-2-carboxylic acid] |  | 17.3 | 11.6 |  |  |  |  | 
25 | OC[C@H]1O[C@@H](n2cnc3c2NC=NC[C@H]3O)C[C@@H]1O [Pentostatin] |  | 12.7 | 15.8 |  |  |  |  | 
26 | CO[C@@H]1C[C@@H](C[C@H]2CC[C@H](C)[C@H]([C@@H](C)C(=O)O)O2)O[C@]2(O[C@](C)([C@H]3CC[C@@](C)([C@@H]4O[C@@H]([C@H]5O[C@@](O)(CO)[C@H](C)C[C@@H]5C)C[C@@H]4C)O3)C[C@H]2C)[C@@H]1C [Nigericin] |  | 6.59 | 6.22 |  |  |  |  | 
27 | CO[C@H]1C[C@H](O[C@H]2[C@H](C)[C@@H](O[C@@H]3O[C@H](C)C[C@H](N(C)C)[C@H]3O)[C@@H](C)C[C@@]3(CO3)C(=O)[C@H](C)[C@@H](O)[C@@H](C)[C@@H](C)OC(=O)[C@@H]2C)O[C@@H](C)[C@@H]1O [Oleandomycin] |  | 13.2 | 4.75 |  |  |  |  | 
28 | CC[C@H]1OC(=O)[C@H](C)[C@@H](O[C@H]2C[C@@](C)(OC)[C@@H](O)[C@H](C)O2)[C@H](C)[C@@H](O[C@@H]2O[C@H](C)C[C@H](N(C)C)[C@H]2O)[C@](C)(O)C[C@@H](C)[C@@H]2N[C@@H](COCCOC)O[C@H]([C@H]2C)[C@]1(C)O [Dirithromycin] |  | 8.51 | 2.24 | 0.867 | 0.651 |  |  | 
29 | CC[C@H]1OC(=O)C[C@@H](O)[C@H](C)[C@@H](O[C@@H]2O[C@H](C)[C@@H](O[C@H]3C[C@@](C)(O)[C@@H](O)[C@H](C)O3)[C@H](N(C)C)[C@H]2O)[C@@H](CC=O)C[C@@H](C)C(=O)/C=C/C(C)=C/[C@@H]1CO[C@@H]1O[C@H](C)[C@@H](O)[C@@H](OC)[C@H]1OC [Tylosin] |  | 9.02 | 5.48 |  |  |  |  | 
30 | C/C(=C\C(=O)OCCCCCCCCC(=O)O)C[C@@H]1OC[C@H](C[C@@H]2O[C@H]2[C@@H](C)[C@H](C)O)[C@@H](O)[C@H]1O [Pseudomonic acid] |  | 11.5 | 11.7 |  |  |  |  | 
31 | C[C@@H]1C/C=C/C=C/C=C/C=C/[C@H](O[C@@H]2O[C@H](C)[C@@H](O)[C@H](N)[C@@H]2O)C[C@@H]2O[C@](O)(C[C@@H](O)C[C@H]3O[C@@H]3/C=C/C(=O)O1)C[C@H](O)[C@H]2C(=O)O [Pimaricin] |  | 10.4 | 13.7 |  |  |  |  | 
32 | COC1=C2C[C@@H](C)C[C@H](OC)[C@H](O)[C@@H](C)/C=C(\C)[C@H](OC(N)=O)[C@@H](OC)/C=C\C=C(/C)C(=O)NC(=CC1=O)C2=O [Geldanamycin] |  | 13 | 14.1 | 0.958 | 0.854 |  |  | 
33 | O=C(O)c1cccc(C(=O)O)n1 [Dipicolinic acid] |  | 13.9 | 2.6 |  |  |  | 0.967 | 0.656
